pEC50: −log10 of the molar value.
How the values were obtained:
[1] = tested on: CGRP-induced increase in laser Doppler facial blood flow; assay: Non-terminal laser Doppler facial blood flow model in non-human primate; format: in vivo, common marmoset (Callithrix jacchus); conditions: for % Inhibition of CGRP-induced increase in laser Doppler facial blood flow: iv, CGRP 10 μg/kg; for inhibition of CGRP-induced increase in laser Doppler facial blood flow (in words): delivered prior to hαCGRP (pre-treatment)
Description: Overview. […] Non-human primates (e.g., marmosets) are the only animals known to have human-like CGRP receptor pharmacology conferred by the presence of the specific amino acid residue (Trp74) in their RAMP1 sequence which is responsible for the phenotype of the human receptor (Mallee et al. J Biol Chem 2002 277:14294). […] Peptide and small-molecule CGRP-receptor antagonists were used to validate the non-human primate model.
Animals. Adult male and female common marmosets (Callithrix jacchus) purchased from Harlan and weighing 350-550 g served as subjects. Other mammals endogenously expressing RAMP1 having Trp 74 or transgenic mammals with humanized RAMP1 having Trp 74 can also be employed in A compound described herein.
Anesthesia & Surgical Preparation. Animals are anesthetized by isoflurane inhalation in an induction chamber (4-5% rapid induction, maintained with 1-2.5%; Solomon et al., 1999). Anesthesia is maintained by delivering a constant supply of air:oxygen (50:50) and isoflurane via face mask, or by intubation and ventilation (with blood gas monitoring). Body temperature is maintained at 38±0.5° C. by placement on an automated temperature controlled surface with rectal probe. A small area of fur (approx. 1.5 cm square) is removed from one or both sides of the face by application of a depilatory cream and/or shaving. Surgical areas are clipped and prepared with betadine. An i.v. line is placed in any accessible vein for the administration of test compounds and CGRP-receptor agonist and, if needed, withdrawal of blood samples (max 2.5 ml, 10%) for blood gas monitoring and content analysis. A solution of 5% dextrose is administered i.v. in order to maintain blood sugar levels. Anesthesia depth is monitored by measuring blood pressure and heart rate using a non-invasive arm cuff method and a pulse oximeter, respectively. Guanethidine 5-10 mg/kg i.v., supplemented with 5 mg/kg i.v. as needed, may be given to stabilize the peak flux in facial blood flow seen with repeated stimulation-induced changes in blood flow (Escott et al., 1999; incorporated by reference herein). Microvascular blood flow is monitored by attaching a self adhesive laser Doppler flow probe to the facial skin.
Compound Administration Test compounds may be administered i.v. (0.01-5 ml/kg), i.m. (0.01-0.5 ml/kg), s.c. (0.01-5 ml/kg) or p.o. (0.1-10 ml/kg) (Diehl et al., 2001; incorporated by reference herein). CGRP-receptor agonists may be delivered i.v. (0.01-5 ml/kg), i.d. (10-100 μl/site) or s.c. (10-100 μl/site).

[2] = target: T1, human CGRP receptor (SK-N-MC cells) (Homo sapiens, UniProt O60894+Q16602); assay: Schild analysis of CGRP stimulated cAMP production; format: cell-based; conditions: Schild plot slope
T1 construct: SK-N-MC cells that endogenously express the human CGRP receptor; endogenous in cells; host or cells: SK-N-MC cells
T1 sequence (Q16602 23-461): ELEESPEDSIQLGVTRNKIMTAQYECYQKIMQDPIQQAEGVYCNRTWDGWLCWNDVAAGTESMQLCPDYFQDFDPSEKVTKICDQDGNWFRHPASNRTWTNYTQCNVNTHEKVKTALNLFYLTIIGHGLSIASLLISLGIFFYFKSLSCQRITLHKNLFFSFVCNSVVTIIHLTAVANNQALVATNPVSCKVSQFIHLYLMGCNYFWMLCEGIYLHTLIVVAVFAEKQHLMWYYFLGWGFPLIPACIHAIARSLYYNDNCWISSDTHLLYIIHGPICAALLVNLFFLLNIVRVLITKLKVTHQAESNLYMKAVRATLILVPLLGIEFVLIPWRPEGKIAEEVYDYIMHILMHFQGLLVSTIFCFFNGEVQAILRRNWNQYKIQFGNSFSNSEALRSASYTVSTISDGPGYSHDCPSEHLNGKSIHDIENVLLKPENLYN
T1 sequence (O60894 27-148): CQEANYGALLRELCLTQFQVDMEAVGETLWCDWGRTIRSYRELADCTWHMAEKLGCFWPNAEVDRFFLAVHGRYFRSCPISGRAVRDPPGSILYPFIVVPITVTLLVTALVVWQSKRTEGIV
Description: Functional Antagonism. Antagonism of the compounds of invention was determined by measuring the formation of cyclic AMP (adenosine 3′5′-cyclic monophosphate) in SK-N-MC cells that endogenously express the human CGRP receptor. CGRP receptor complex is coupled with Gs protein and CGRP binding to this complex leads to the cyclic AMP production via Gs—dependent activation of an adenylate cyclase (Juaneda C et al., TiPS, 2000; 21:432-438; incorporated by reference herein). Consequently, CGRP receptor antagonists inhibit CGRP-induced cyclic AMP formation in SK-N-MC cells (Doods H et al., Br J Pharmacol, 2000; 129(3):420-423); incorporated by reference herein). For cyclic AMP measurements SK-N-MC cells were incubated with 0.3 nM CGRP alone or in the presence of various concentrations of the compounds of invention for 30 min at room temperature. Compounds of invention were pre-incubated with SK-N-MC cells for 15 min before the addition of CGRP to allow receptor occupancy (Edvinsson et al., Eur J Pharmacol, 2001, 415:39-44; incorporated by reference herein). Cyclic AMP was extracted using the lysis reagent and its concentration was determined by radioimmunoassay using RPA559 cAMP SPA Direct Screening Assay Kit (Amersham Pharmacia Biotech). IC50 values were calculated using Excel fit.
Schild Analysis. Schild analysis can be used to characterize the nature of antagonism of the compounds of invention. The dose response of CGRP stimulated cAMP production was generated either with CGRP alone, or in the presence of various concentrations of compounds of invention. The antagonist dose is plotted as X against the dose ratio (defined as IC50 of agonist with the presence of the compounds divided by the IC50 of the agonist alone) minus 1 as Y. Linear regression was then performed with both X and Y axis log-transformed. […] Kb is the dissociation constant of the antagonist.

[3] = tested on: human cerebral vessels (CGRP-induced dilation); assay: Ex Vivo Human Cerebral Artery Assay, reversal of CGRP-induced relaxation; conditions: reversal of 1 nM hCGRP-induced relaxation, vessels pre-contracted with 10 mM KCl
Procedure, shortened: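 Autopsy human cerebral artery rings (4-5 mm) in Krebs buffer, 37 °C, pH 7.4, carbogen; primed with 100 mM KCl, pre-contracted with 10 mM KCl and fully dilated with 1 nM hCGRP. Antagonists added cumulatively in half-log steps; tension recorded as % reversal of CGRP relaxation, EC50 by four-parameter logistic fit per vessel.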

| Compound | % Inhibition of CGRP-induced increase in laser Doppler facial blood flow ([1]; 1 mg/kg) | inhibition of CGRP-induced increase in laser Doppler facial blood flow (in words) [1] | slope [2] | pEC50 [3] | % Inhibition of CGRP-induced increase in laser Doppler facial blood flow ([1]; 0.01 mg/kg) | % Inhibition of CGRP-induced increase in laser Doppler facial blood flow ([1]; 0.03 mg/kg) | % Inhibition of CGRP-induced increase in laser Doppler facial blood flow ([1]; 0.1 mg/kg) | % Inhibition of CGRP-induced increase in laser Doppler facial blood flow ([1]; 0.3 mg/kg) |
| --- | --- | --- | --- | --- | --- | --- | --- | --- |
| hαCGRP(8-37): "the peptide antagonist hαCGRP(8-37)" [reference compound] | Z (Z>75%) | dose-dependently inhibited | – | – | – | – | – | – |
| O=C(N[C@H](Cc1ccc2[nH]ncc2c1)C(=O)N1CCC(N2CCCCC2)CC1)N1CCC(N2Cc3ccccc3NC2=O)CC1 [Example 2, (R)-4-(2-Oxo-1,4-dihydro-2H-quinazolin-3-yl)-piperidine-1-carboxylic acid[2-[1,4′]bipiperidinyl-1′-yl-1-(1H-indazol-5-ylmethyl)-2-oxo-ethyl]-amide] | Z (Z>75%) | dose-dependently inhibits | 0.94 | > 8.00 | W (W≦25%) | X (25%<X≦50%) | X (25%<X≦50%) | Y (50%<Y≦75%) |
| O=C(NC(Cc1ccc2[nH]ncc2c1)C(=O)N1CCC(N2CCCCC2)CC1)N1CCC(N2Cc3ccccc3NC2=O)CC1 (racemic) [Example 6, (±)-4-(2-Oxo-1,4-dihydro-2H-quinazolin-3-yl)-piperidine-1-carboxylic acid[2-[1,4′]bipiperidinyl-1′-yl-1-(1H-indazol-5-ylmethyl)-2-oxo-ethyl]-amide] | Z (Z>75%) | – | 0.93 | > 8.00 | – | – | – | – |

— patent US7842808B2, “Anti-migraine spirocycles” (Bristol-Myers Squibb Company, priority 2002, dated 2010)
